Test results taken from patent US8148531B2 (Chroma Therapeutics Ltd., priority 2005, dated 2012).

Key:
Type in all cases: cell-based
HCT 116 cell line = assay: Cell inhibition assay (SRB cell viability), HCT 116; conditions: Homo sapiens, IC50 range class, 72 h, read-out: Inhibitor Activity vs HCT 116 cell line
Experimental: (§1) The corresponding cancer cell lines (U937, HCT 116 and HUT) growing in log phase were harvested and seeded at 1000 cells/well (200 ul final volume) into 96-well tissue culture plates. Following 24 h of cell growth cells were treated with compounds (final concentration of 20 uM). Plates were then re-incubated for a further 72 h before a sulphorhodamine B (SRB) cell viability assay was conducted according to Skehan 1990 J Natl Canc Inst 82, 1107-1112.
(§2) Data were expressed as a percentage inhibition of the control, measured in the absence of inhibitor, as follows: — % inhibition=100−((S^i/S^o)×100) where S^i is the signal in the presence of inhibitor and S^o is the signal in the presence of DMSO.
(§3) IC50 values were determined by non-linear regression analysis, after fitting the results of eight data points to the equation for sigmoidal dose response with variable slope (% activity against log concentration of compound), using Graphpad Prism software.

U937 cell line = assay: Cell inhibition assay (SRB cell viability), U937; conditions: Homo sapiens, U-937, IC50 range class, 72 h, read-out: Inhibitor Activity vs U937 cell line
Experimental: as §1, §2, §3

HUT cell line = assay: Cell inhibition assay (SRB cell viability), HUT; conditions: IC50 range class, 72 h, read-out: Inhibitor Activity vs HUT cell line
Experimental: as §1, §2, §3

IC50 (HCT 116 cell line) [nM] | IC50 (U937 cell line) [nM] | Structure (SMILES) | IC50 (HUT cell line) [nM]
< 1000 | < 1000 | COc1cc2c(Oc3ccc(NC(=O)c4cc(C(F)(F)F)ccc4F)cc3)ccnc2cc1OCC[C@H](N)C(=O)OC1CCCC1 [Example 68, (S)-2-Amino-4-{4-[4-(2-fluoro-5-trifluoromethyl-benzoylamino)-phenoxy]-6-methoxy-quinolin-7-yloxy}-butyric acid cyclopentyl ester] | < 1000
< 1000 | < 1000 | COc1cc2c(Oc3ccc(NC(=O)c4ccccc4)cc3)ccnc2cc1OCC[C@H](N)C(=O)OC1CCC(C)C1 (stereo partly drawn) [Example 46, (S)-2-Amino-4-[4-(4-benzoylamino-phenoxy)-6-methoxy-quinolin-7-yloxy]-butyric acid 3-methyl-cyclopentyl ester] | < 1000
< 1000 | < 1000 | CCOC(=O)[C@@H](N)CCOc1cc2nccc(Oc3ccc(NC(=O)c4ccccc4)cc3)c2cc1OC [Example 51, (S)-2-Amino-4-[4-(4-benzoylamino-phenoxy)-6-methoxy-quinolin-7-yloxy]-butyric acid Ethyl ester] | < 1000
1000 to 5000 | 1000 to 5000 | CCN(CC)[C@@H](CCOc1cc2nccc(Oc3ccc(NC(=O)c4ccccc4)cc3)c2cc1OC)C(=O)OC1CCCC1 [Example 41, (S)-4-[4-(4-Benzoylamino-phenoxy)-6-methoxy-quinolin-7-yloxy]-2-diethylamino-butyric acid cyclopentyl ester] | 1000 to 5000
< 1000 | < 1000 | COc1cc2c(Oc3ccc(CC(=O)Nc4ccc(C(F)(F)F)cc4)cc3)ccnc2cc1OCC[C@H](N)C(=O)OC1CCCC1 [Example 79, (S)-2-Amino-4-(6-methoxy-4-{4-[(4-trifluoromethyl-phenylcarbamoyl)-methyl]-phenoxy}-quinolin-7-yloxy)-butyric acid cyclopentyl ester] | < 1000
1000 to 5000 | < 1000 | COc1cc2c(Oc3ccc(NCc4ccccc4)cc3)ccnc2cc1OCC[C@H](N)C(=O)OC1CCCC1 [Example 138, (S)-2-Amino-4-[4-(4-benzylamino-phenoxy)-6-methoxy-quinolin-7-yloxy]-butyric acid cyclopentyl ester] | < 1000
< 1000 | < 1000 | COc1cc2c(Oc3ccc(CC(=O)Nc4ccccc4F)cc3)ccnc2cc1OCC[C@H](N)C(=O)OC1CCCC1 [Example 82, (S)-2-Amino-4-(4-{4-[(2-fluoro-phenylcarbamoyl)-methyl]-phenoxy}-6-methoxy-quinolin-7-yloxy)-butyric acid cyclopentyl ester] | < 1000
< 1000 | < 1000 | COc1cc2c(Oc3ccc(CC(=O)Nc4ccc(F)cc4)cc3)ccnc2cc1OCC[C@H](N)C(=O)OC1CCCC1 [Example 86, (S)-2-Amino-4-(4-{4-[(4-fluoro-phenylcarbamoyl)-methyl]-phenoxy}-6-methoxy-quinolin-7-yloxy)-butyric acid cyclopentyl ester] | < 1000
< 1000 | < 1000 | COc1cc2c(Oc3ccc(NC(=O)c4ccccc4)cc3)ccnc2cc1OCC[C@H](N)C(=O)OC1CCCCC1 [Example 48, (S)-2-Amino-4-[4-(4-benzoylamino-phenoxy)-6-methoxyquinolin-7-yloxy]-butyric acid cyclohexyl ester] | < 1000
< 1000 | < 1000 | COc1cc2c(Oc3ccc(NC(=O)c4ccccc4)c(F)c3)ccnc2cc1OCC[C@H](N)C(=O)OC1CCCC1 [Example 130, (S)-2-Amino-4-[4-(4-benzoylamino-3-fluoro-phenoxy)-6-methoxy-quinolin-7-yloxy]-butyric acid cyclopentyl ester] | < 1000
1000 to 5000 | < 1000 | COc1cc2c(Oc3ccc(NC(=O)c4ccccc4)cc3OC)ccnc2cc1OCC[C@H](N)C(=O)OC1CCCC1 [Example 132, (S)-2-Amino-4-[4-(4-benzoylamino-2-methoxy-phenoxy)-6-methoxy-quinolin-7-yloxy]-butyric acid cyclopentyl ester] | 1000 to 5000

Further lines, the compound ahead of its results:

Structure (SMILES) | IC50 (HCT 116 cell line) [nM] | IC50 (U937 cell line) [nM] | IC50 (HUT cell line) [nM]
COc1cc2c(Oc3ccc(CNC(=O)c4ccccc4)cc3)ccnc2cc1OCC[C@H](N)C(=O)OC1CCCC1 [Example 141, (S)-2-Amino-4-{4-[4-(benzoylamino-methyl)-phenoxy]-6-methoxy-quinolin-7-yloxy}-butyric acid cyclopentyl ester] | < 1000 | < 1000 | < 1000
COc1cc2c(Oc3ccc4sc(C)nc4c3)ccnc2cc1OCC[C@H](N)C(=O)OC1CCCC1 [Example 12, (S)-2-Amino-4-[6-methoxy-4-(2-methyl-benzothiazol-5-yloxy)-quinolin-7-yloxy]-butyric acid cyclopentyl ester] | > 5000 | 1000 to 5000 | > 5000
COc1cc2c(Oc3ccc(NC(=O)c4ccc(OC(F)(F)F)cc4)cc3)ccnc2cc1OCC[C@H](N)C(=O)OC1CCCC1 [Example 70, (S)-2-Amino-4-{6-methoxy-4-[4-(4-trifluoromethoxy-benzoylamino)-phenoxy]-quinolin-7-yloxy}-butyric acid cyclopentyl ester] | < 1000 | < 1000 | < 1000
COc1cc2c(Oc3ccc(NC(=O)c4ccc(C(F)(F)F)cc4)cc3)ccnc2cc1OCC[C@@H](N)C(=O)OC1CCCC1 [Example 103, (R)-2-Amino-4-{6-methoxy-4-[4-(4-trifluoromethyl-benzoylamino)-phenoxy]-quinolin-7-yloxy}-butyric acid cyclopentyl ester] | < 1000 | < 1000 | < 1000
COc1cc2c(Oc3ccc(-c4ccccc4)cc3)ccnc2cc1OCC[C@H](N)C(=O)OC1CCCC1 [Example 11, (S)-2-Amino-4-[4-(biphenyl-4-yloxy)-6-methoxy-quinolin-7-yloxy]-butyric acid cyclopentyl ester] | 1000 to 5000 | 1000 to 5000 | 1000 to 5000
COc1cc2c(Oc3ccc(NC(=O)Nc4ccc5c(c4)CCC5)cc3)ccnc2cc1OCC[C@H](N)C(=O)OC1CCCC1 [Example 97, (S)-2-Amino-4-{4-[4-(3-indan-5-yl-ureido)-phenoxy]-6-methoxy-quinolin-7-yloxy}-butyric acid cyclopentyl ester] | < 1000 | < 1000 | < 1000
COc1cc2c(Oc3ccc(-c4noc(-c5ccccc5)n4)cc3)ccnc2cc1OCC[C@H](N)C(=O)OC1CCCC1 [Example 92, (S)-2-Amino-4-{6-methoxy-4-[4-(5-phenyl-[1,2,4]oxadiazol-3-yl)-phenoxy]-quinolin-7-yloxy}-butyric acid cyclopentyl ester] | > 5000 | > 5000 | > 5000
COc1cc2c(Oc3ccc(NC(=O)Nc4ccc(C(F)(F)F)cc4)cc3F)ccnc2cc1OCCC[C@@H](N)C(=O)OC1CCCC1 [Example 123, (R)-2-Amino-5-(4-{2-fluoro-4-[3-(4-trifluoromethyl-phenyl)-ureido]-phenoxy}-6-methoxy-quinolin-7-yloxy)-pentanoic acid cyclopentyl ester] | < 1000 | < 1000 | < 1000
COc1cc2c(Oc3ccc(NC(=O)c4ccc(F)cc4)cc3)ccnc2cc1OCC[C@H](N)C(=O)OC1CCCC1 [Example 63, (S)-2-Amino-4-{4-[4-(4-fluoro-benzoylamino)-phenoxy]-6-methoxy-quinolin-7-yloxy}-butyric acid cyclopentyl ester] | < 1000 | < 1000 | < 1000
COc1cc2c(Oc3ccc(NC(=O)Nc4ccc(C(F)(F)F)cc4)cc3)ccnc2cc1OCCC[C@H](N)C(=O)OC1CCCC1 [Example 113, (S)-2-Amino-5-(6-methoxy-4-{4-[3-(4-trifluoromethyl-phenyl)-ureido]-phenoxy}-quinolin-7-yloxy)-pentanoic acid cyclopentyl ester] | < 1000 | < 1000 | < 1000
COc1cc2c(Oc3ccc(NC(=O)c4ccccc4)cc3)ccnc2cc1OC1CCN(CC[C@H](N)C(=O)OC2CCCC2)C1 (stereo partly drawn) [Example 137, (S)-2-Amino-4-{3-[4-(4-benzoylamino-phenoxy)-6-methoxy-quinolin-7-yloxy]-pyrrolidin-1-yl}-butyric acid cyclopentyl ester] | 1000 to 5000 | < 1000 | < 1000
COc1cc2c(Oc3ccc(NC(=O)c4ccc(Cl)cc4)cc3)ccnc2cc1OCC[C@H](N)C(=O)OC1CCCC1 [Example 66, (S)-2-Amino-4-{4-[4-(4-chloro-benzoylamino)-phenoxy]-6-methoxy-quinolin-7-yloxy}-butyric acid cyclopentyl ester] | < 1000 | < 1000 | < 1000
COc1cc2c(Oc3ccc(NC(=O)c4ccccc4F)cc3)ccnc2cc1OCC[C@H](N)C(=O)OC1CCCC1 [Example 61, (S)-2-Amino-4-{4-[4-(2-fluoro-benzoylamino)-phenoxy]-6-methoxy-quinolin-7-yloxy}-butyric acid cyclopentyl ester] | < 1000 | < 1000 | < 1000
COc1cc2c(Oc3ccc(NC(=O)C4=C(C)c5ccccc5C4)cc3)ccnc2cc1OCC[C@H](N)C(=O)OC1CCCC1 [Example 72, (S)-2-Amino-4-(6-methoxy-4-{4-[(3-methyl-1H-indene-2-carbonyl)-amino]-phenoxy}-quinolin-7-yloxy)-butyric acid cyclopentyl ester] | < 1000 | < 1000 | < 1000
